The values that follow come from ChEMBL document CHEMBL3808279, “Sequential one-pot synthesis of bis(indolyl)glyoxylamides: Evaluation of antibacterial and anticancer activities” (Bioorg Med Chem Lett, 2016).

For data set [1], the system named is Escherichia coli. As to the kind of experiment: Antimicrobial activity against Escherichia coli. It counts as functional.
Data set [2] deals with Bacillus subtilis. As to the kind of experiment: Antimicrobial activity against Bacillus subtilis. It counts as functional.
The subject of another data set is Pseudomonas aeruginosa. As to the kind of experiment: Antimicrobial activity against Pseudomonas aeruginosa. It counts as functional.
Another data set has as its system P388. As to the kind of experiment: Cytotoxicity against mouse P388 cells. It counts as functional, cell-based.
The subject of the next data set is A549. As to the kind of experiment: Cytotoxicity against human A549 cells. The class given is functional, cell-based.
Another data set concerns Micrococcus luteus. The data set is described as follows: Antimicrobial activity against Sarcina lutea. It counts as functional.
Another data set relates to Corynebacterium xerosis. As to the kind of experiment: Antimicrobial activity against Corynebacterium xerosis. The class given is functional.
Data set [3] concerns Escherichia coli. The data set is described as follows: Antibacterial activity against Escherichia coli after 18 to 24 hrs by microbroth dilution method. As to conditions: for MIC: Escherichia coli. The class given is functional. For orientation: Dilution methods test growth across graded concentrations, often in twofold steps.
Data set [4] has as its system Pseudomonas putida. The data set is described as follows: Antibacterial activity against Pseudomonas putida after 18 to 24 hrs by microbroth dilution method. The class given is functional. As to conditions: for MIC: Pseudomonas putida.
In a further data set the test system is Klebsiella pneumoniae. The data set is described as follows: Antibacterial activity against Klebsiella pneumoniae after 18 to 24 hrs by microbroth dilution method. As to conditions: for MIC: Klebsiella pneumoniae. It counts as functional.
For data set [5], the system named is Bacillus subtilis. The data set is described as follows: Antibacterial activity against Bacillus subtilis after 18 to 24 hrs by microbroth dilution method. The class given is functional. The conditions noted are these: for MIC: Bacillus subtilis.
Data set [6] has as its system Staphylococcus aureus. The data set is described as follows: Antibacterial activity against Staphylococcus aureus after 18 to 24 hrs by microbroth dilution method. The class given is functional. As to conditions: for MIC: Staphylococcus aureus.
The next data set concerns MDA-MB-231. The data set is described as follows: Cytotoxicity against human MDA-MB-231 cells after 48 hrs by MTT assay. The class given is functional, cell-based. As to conditions: MDA-MB-231, 48 h. (In general: Tetrazolium dyes change colour on reduction, which living cells bring about.)
A short description of data set [7]: Cytotoxicity against human PC3 cells after 48 hrs by MTT assay. It counts as functional, cell-based. As to conditions: PC-3, 48 h.
The test system of another data set is HeLa. The data set is described as follows: Cytotoxicity against human HeLa cells after 48 hrs by MTT assay. It counts as functional, cell-based.
Data set [8] in a line: Cytotoxicity against human C4-2 cells after 48 hrs by MTT assay. As to conditions: LNCaP C4-2, 48 h. The class given is functional, cell-based.
Data set [9] is described as follows: Cytotoxicity against human HEK293T cells after 48 hrs by MTT assay. As to conditions: HEK-293T. The class given is cell-based.
Data set [10] in a line: Cytotoxicity against human BxPC3 cells after 48 hrs by MTT assay. As to conditions: BXPC-3, 48 h. It counts as functional, cell-based.
A further data set relates to PC-3. The data set is described as follows: Induction of apoptosis in human PC3 cells assessed as increase in cleaved PARP1 level after 48 hrs by immunoblot analysis. The class given is functional, cell-based.
Data set [11] has as its target Cyclin-dependent kinase 4 (Homo sapiens, UniProt P11802). The data set is described as follows: Inhibition of CDK4 (unknown origin).
Data set [12] deals with Receptor tyrosine-protein kinase erbB-2 (Homo sapiens, UniProt P04626). As to the kind of experiment: Inhibition of c-erbB2 (unknown origin).
Receptor tyrosine-protein kinase erbB-2, sequence (P04626 whole entry): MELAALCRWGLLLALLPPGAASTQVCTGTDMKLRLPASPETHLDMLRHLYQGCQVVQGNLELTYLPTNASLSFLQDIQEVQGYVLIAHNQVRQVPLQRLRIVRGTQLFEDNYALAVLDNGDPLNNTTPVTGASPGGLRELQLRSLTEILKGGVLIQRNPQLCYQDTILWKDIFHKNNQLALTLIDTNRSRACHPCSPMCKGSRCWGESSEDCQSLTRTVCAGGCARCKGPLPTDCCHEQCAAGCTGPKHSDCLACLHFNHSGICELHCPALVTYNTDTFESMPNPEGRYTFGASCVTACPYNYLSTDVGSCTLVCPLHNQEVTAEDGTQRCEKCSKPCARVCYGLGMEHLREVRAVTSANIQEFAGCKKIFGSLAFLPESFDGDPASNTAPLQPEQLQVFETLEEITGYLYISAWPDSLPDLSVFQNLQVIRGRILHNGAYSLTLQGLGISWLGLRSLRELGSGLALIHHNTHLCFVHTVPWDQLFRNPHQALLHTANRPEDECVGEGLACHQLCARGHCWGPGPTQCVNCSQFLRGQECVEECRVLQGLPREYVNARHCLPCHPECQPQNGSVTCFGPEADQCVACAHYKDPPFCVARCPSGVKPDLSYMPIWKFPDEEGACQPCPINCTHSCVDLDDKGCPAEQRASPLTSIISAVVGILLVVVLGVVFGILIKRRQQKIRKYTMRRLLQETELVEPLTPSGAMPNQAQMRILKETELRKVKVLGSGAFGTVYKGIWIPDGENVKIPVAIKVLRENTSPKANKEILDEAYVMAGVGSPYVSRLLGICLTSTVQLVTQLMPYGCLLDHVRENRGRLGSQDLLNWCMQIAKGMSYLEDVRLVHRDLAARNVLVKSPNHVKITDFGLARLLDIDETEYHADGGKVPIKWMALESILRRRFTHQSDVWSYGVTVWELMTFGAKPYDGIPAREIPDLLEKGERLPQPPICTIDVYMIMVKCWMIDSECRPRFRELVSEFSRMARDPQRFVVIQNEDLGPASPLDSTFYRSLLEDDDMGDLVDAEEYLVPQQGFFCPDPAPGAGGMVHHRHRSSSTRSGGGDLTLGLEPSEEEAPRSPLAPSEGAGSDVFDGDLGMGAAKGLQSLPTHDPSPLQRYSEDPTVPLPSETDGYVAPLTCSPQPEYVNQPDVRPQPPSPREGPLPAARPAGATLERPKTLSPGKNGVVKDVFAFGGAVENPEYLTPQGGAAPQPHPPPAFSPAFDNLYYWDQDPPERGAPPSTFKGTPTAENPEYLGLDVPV
Data set [13] concerns Escherichia coli. The data set is described as follows: Bactericidal activity against Escherichia coli at 3 times MIC after 2 hrs by time-kill analysis. The class given is functional.
For data set [14], the system named is Pseudomonas putida. As to the kind of experiment: Bactericidal activity against Pseudomonas putida at 3 times MIC after 2 hrs by time-kill analysis. It counts as functional.
Data set [15] deals with Bacillus subtilis. As to the kind of experiment: Bactericidal activity against Bacillus subtilis at 3 times MIC after 2 hrs by time-kill analysis. It counts as functional.
Data set [16] has as its system Staphylococcus aureus. As to the kind of experiment: Bactericidal activity against Staphylococcus aureus at 3 times MIC after 2 hrs by time-kill analysis. The class given is functional.
A short description of data set [17]: Stability of compound at pH 4.5 up to 48 hrs by HPLC analysis. The conditions noted are these: buffer, pH 4.5, 48 h. The class given is physicochemical.
The nature of data set [18]: Stability of compound at pH 7.4 up to 48 hrs by HPLC analysis. The class given is physicochemical. As to conditions: buffer, pH 7.4, 48 h.
Data set [19] is described as follows: Aqueous solubility of compound after 12 hrs by shake-flask method. The class given is physicochemical. The conditions noted are these: water.
Data set [20] deals with Escherichia coli. The data set is described as follows: Bactericidal activity against Escherichia coli assessed as maximum bactericidal reduction at 3 times MIC after 3 hrs by time-kill analysis. The class given is functional, organism-based.
Data set [21] relates to Pseudomonas putida. The data set is described as follows: Bactericidal activity against Pseudomonas putida assessed as maximum bactericidal reduction at 3 times MIC after 3 hrs by time-kill analysis. The class given is functional, organism-based.

Molecules are shown by their SMILES. ≈ marks a conversion by molar mass, not a printed value. Calls of active or inactive are those of the source. No cut-off for these calls is given here.

Cyclin-dependent kinase 4, sequence (P11802 whole entry): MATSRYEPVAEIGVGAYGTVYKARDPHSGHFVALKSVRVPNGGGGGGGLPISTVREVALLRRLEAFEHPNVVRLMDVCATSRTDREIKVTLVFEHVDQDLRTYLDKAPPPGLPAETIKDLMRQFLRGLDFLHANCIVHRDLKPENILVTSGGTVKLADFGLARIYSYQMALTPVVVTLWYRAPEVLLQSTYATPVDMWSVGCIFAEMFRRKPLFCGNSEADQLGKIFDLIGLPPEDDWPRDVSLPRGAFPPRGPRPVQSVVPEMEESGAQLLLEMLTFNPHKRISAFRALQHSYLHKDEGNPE

As a reminder, the MIC is the least concentration at which growth counts as inhibited. Lower therefore signals greater potency. Usually IC50 stands for the concentration at which inhibition is half-maximal. Higher therefore signals a need for much substance. As to `CC(c1c[nH]c(N)n1)c1ccc(O)c2[nH]cc(-c3cnc(-c4c[nH]c5cc(Br)ccc45)c(O)n3)c12.O=C(O)C(F)(F)F` (centres undefined) [DRAGMACIDINS], the MIC stood at 15.6 µg/mL in the data set on Escherichia coli [1], 3.1 µg/mL in the data set with Bacillus subtilis [2] and 62.5 µg/mL against Pseudomonas aeruginosa. For the same compound, the IC50 in the data set on P388 worked out at 1.4 µg/mL; in the data set on A549, 4.5 µg/mL.
For the compound `O=C1N=C(C(=O)c2c[nH]c3ccc(Br)cc23)N/C1=C\c1c[nH]c2ccccc12`, the MIC in the data set with Micrococcus luteus and with Corynebacterium xerosis was 16 µg/mL (≈ 36.9 µM) throughout.
For `O=C(NCCc1c[nH]c2ccccc12)C(=O)c1c[nH]c2ccccc12`, the “inhibition zone (IZ)” value in the data set with Escherichia coli [3] is recorded as 15 mm; in the data set on Pseudomonas putida [4], 14 mm; with Klebsiella pneumoniae it was 14 mm; in the data set with Bacillus subtilis [5], 15 mm; in the data set with Staphylococcus aureus [6], 15 mm. Further, the MIC in the data set on Escherichia coli [3] worked out at 50 µg/mL (≈ 151 µM); against Pseudomonas putida [4], 50 µg/mL (≈ 151 µM); against Klebsiella pneumoniae it was 100 µg/mL (≈ 302 µM); against Bacillus subtilis [5], 50 µg/mL (≈ 151 µM); against Staphylococcus aureus [6] it was 50 µg/mL (≈ 151 µM). The IC50 in the data set with MDA-MB-231 stood at 48.7 µM; in data set [7], 38.5 µM; with HeLa, 48.9 µM; in data set [8] it was 71.5 µM; in data set [9], 97.7 µM; in [10], 64 µM. Also, the result in the data set with PC-3 was Active.
Regarding `O=C1N=C(C(=O)c2c[nH]c3ccccc23)N/C1=C\c1c[nH]c2cc(O)ccc12`, the results for the IC50 in data set [11] and in data set [12] were 33.8 µM and 20 µM, respectively.
For orientation: thermodynamic solubility means the concentration in solution at equilibrium with solid. With `O=C(NCCc1c[nH]c2ccccc12)C(=O)c1c[nH]c2ccc(F)cc12`, the “inhibition zone (IZ)” value stood at 20 mm in the data set with Escherichia coli [3]; 18 mm with Pseudomonas putida [4]; 18 mm in the data set with Klebsiella pneumoniae; 18 mm in the data set on Bacillus subtilis [5]; 17 mm in the data set on Staphylococcus aureus [6]. Also, the MIC with Escherichia coli [3] is 12.5 µg/mL (≈ 35.8 µM); in the data set on Pseudomonas putida [4], 12.5 µg/mL (≈ 35.8 µM); against Klebsiella pneumoniae, 12.5 µg/mL (≈ 35.8 µM); against Bacillus subtilis [5], above 12.5 µg/mL; in the data set with Staphylococcus aureus [6], 25 µg/mL (≈ 71.6 µM). Also, the Activity in the data set on Escherichia coli [13] was 80%; in the data set on Pseudomonas putida [14] it was 80%; in the data set on Bacillus subtilis [15] it was above 80%; in the data set with Staphylococcus aureus [16] it was above 65%. Also, the IC50 (with MDA-MB-231; in [7]; with HeLa; in data set [8]; in [9]; in data set [10]) was above 100 µM in each case. The Stability result in data set [17] and in data set [18] was “Stable” throughout. The compound further registered a solubility (thermodynamic) at 12 h in data set [19] of 0.3 µg/mL (≈ 0.859 µM). The outcome with Escherichia coli [20] and with Pseudomonas putida [21] was Active.
Regarding `O=C(NCCc1c[nH]c2ccccc12)C(=O)c1c[nH]c2cc(F)ccc12`, the results for the “inhibition zone (IZ)” value in the data set on Escherichia coli [3], in the data set with Pseudomonas putida [4] and in the data set on Klebsiella pneumoniae were 15 mm, 14 mm and 14 mm, respectively. In addition, the MIC was 100 µg/mL (≈ 286 µM) with Escherichia coli [3], above 100 µg/mL with Pseudomonas putida [4] and above 50 µg/mL against Klebsiella pneumoniae. The IC50 with MDA-MB-231 was determined as 21.1 µM; in [7] it was 24.1 µM; in the data set on HeLa it was 22.3 µM; in [8], 46 µM; in data set [9] it was 69.8 µM; in [10] it was 29.9 µM. The outcome in the data set with PC-3 was Active.
